The record followed here is US11952387B2, “Bicyclic heteroaromatic ring derivative” (priority 2018, dated 2024).

Bounds are passed on as bounds.

The test system of this test is HRV14. The experiment in a line: Inhibitory activity against human rhinovirus infection and replication (quantitative real-time PCR). In kind it is cell-based. The conditions noted are these: Human rhinovirus sp., MRC5; 100 nmol/L test compound; MRC-5 cells infected with HRV14 at MOI=0.2; 48 hours; viral load normalized to 18s rRNA; read-out: Percent Inhibition. The method in brief:
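Near-confluent MRC-5 cells were pretreated 30 min with compound at 100 or 1000 nmol/L, then infected with HRV14 (MOI 0.2) in compound-containing medium (2% FBS, 30 mmol/L MgCl2) and cultured 48 h at 35 °C. HRV14 RNA by qRT-PCR, normalized to 18S rRNA; percent inhibition versus untreated infected cells.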
For the compound `[2H]C([2H])([2H])Oc1ccc(-c2c(C)nc3sc(C(C)(C)O)cn23)cc1S(=O)(=O)N[C@H]1CC[C@@H](O)CC1` [Example 2-88], the inhibition at 0.1 µM was not above 50%.
Then `[2H]C([2H])([2H])Oc1ccc(-c2c(C)nc3sc(C(C)(C)O)nn23)cc1S(=O)(=O)N[C@H]1CC[C@@H](O)CC1` [Example 2-89], with 50 to 80%; and `[2H]C([2H])([2H])Oc1ccc(-c2c(C)nc3sc(C4CC4)nn23)cc1S(=O)(=O)NC(C)(C)CO` [Example 2-90], with more than 80%; and `COc1ccc(-c2c(C)nc3sc(C(C)(C)O)nn23)cc1S(=O)(=O)Cc1ccccc1` [Example 2-91], with more than 80%.
Consider `COc1ccc(-c2c(C)nc3sc(C(C)(C)O)nn23)cc1S(=O)(=O)Cc1ccc(F)cc1` [Example 2-92], for which the inhibition at 0.1 µM lay in the range of 50 to 80%.
Regarding `COc1ccc(-c2c(C)nc3sc(C(C)(C)O)nn23)cc1S(=O)(=O)Cc1ccc(C#N)cc1` [Example 2-93], the inhibition at 0.1 µM was 50 to 80%.
For the compound `COc1ccc(-c2c(C)nc3sc(C(C)(C)O)nn23)cc1S(=O)(=O)Cc1cccnc1` [Example 2-94], the inhibition at 0.1 µM fell in the range of 50 to 80%.
As for `COc1ccc(-c2c(C)nc3sc(C(C)(C)O)nn23)cc1S(=O)(=O)Cc1ccncc1` [Example 2-95], the figure is 50 to 80%; as for `COc1ccc(-c2c(C)nc3sc(C(O)(C4CC4)C4CC4)nn23)cc1S(=O)(=O)[C@H]1C[C@@H](O)C1` [Example 2-96], more than 80%.
As for `[2H]C([2H])([2H])C(O)(CS(=O)(=O)c1cc(-c2c(C)nc3sc(C(C)(C)O)nn23)ccc1C(F)(F)F)C([2H])([2H])[2H]` [Example 2-97], the figure is more than 80%; as for `COc1ccc(-c2c(C)nc3sc(C(O)(C4CC4)C4CC4)nn23)cc1S(=O)(=O)CC(C)(C)C#N` [Example 2-98], more than 80%; as for `Cc1nc2sc(C(C)(C)O)nn2c1-c1ccc(C(F)(F)F)c(S(=O)(=O)NC2(C(C)(C)O)CC2)c1` [Example 3-2], more than 80%.
Then `COc1ccc(-c2c(C)nc3sc(C(C)(C)O)nn23)cc1S(=O)(=O)Nc1ccc(C(C)(C)O)cc1` [Example 3-3], with not above 50%; and `COc1ccc(-c2c(C)nc3sc(C(C)(C)O)nn23)cc1S(=O)(=O)C(C)(C)CO` [Example 4-1], with more than 80%; and `Cc1nc2sc(C(C)(C)O)nn2c1-c1ccc(C(F)(F)F)c(S(=O)(=O)C2(CO)CC2)c1` [Example 4-2], with more than 80%.
In the case of `Cc1nc2sc(C(C)(C)O)nn2c1-c1ccc(C(F)(F)F)c(S(=O)(=O)C(C)(C)CO)c1` [Example 4-3], the inhibition at 0.1 µM was more than 80%.
Then `COc1ccc(-c2c(C)nc3sc(C(C)(C)O)nn23)cc1S(=O)(=O)C1(CO)CC1` [Example 4-4], with 50 to 80%; and `COc1ccc(-c2c(C)nc3sc(C(O)(C4CC4)C4CC4)nn23)cc1S(=O)(=O)C(C)(C)CO` [Example 4-5], with more than 80%; and `Cc1nc2sc(C(C)(C)O)nn2c1-c1ccc(C(F)(F)F)c(S(=O)(=O)C(C)(C)C(=O)O)c1` [Example 5], with not above 50%.
As for `COc1ccc(-c2c(C)nc3sc(C(C)(C)O)nn23)cc1S(=O)(=O)C(C)(C)C(N)=O` [Example 6-1], the figure is 50 to 80%; as for `Cc1nc2sc(C(C)(C)O)nn2c1-c1ccc(C(F)(F)F)c(S(=O)(=O)C(C)(C)C(N)=O)c1` [Example 6-2], not above 50%; as for `COc1ccc(-c2c(C)nc3sc(C(O)(C4CC4)C4CC4)nn23)cc1S(=O)(=O)C(C)(C)C(N)=O` [Example 6-3], more than 80%.
Then `COc1c(F)cc(-c2c(C)nc3sc(C(O)(C4CC4)C4CC4)nn23)cc1S(=O)(=O)C(C)(C)C(N)=O` [Example 6-4], with more than 80%; and `COc1ccc(-c2c(C)nc3sc(C(C)(C)O)nn23)cc1S(=O)(=O)C(C)(C)C#N` [Example 7-1], with more than 80%.
`COc1ccc(-c2c(C)nc3sc(C(O)(C4CC4)C4CC4)nn23)cc1S(=O)(=O)C(C)(C)C#N` [Example 7-2]: the inhibition at 0.1 µM is more than 80%.
As for `CNC(=O)C(C)(C)S(=O)(=O)c1cc(-c2c(C)nc3sc(C(C)(C)O)nn23)ccc1OC` [Example 8-1], the inhibition at 0.1 µM was in the range of 50 to 80%.
Then `COc1ccc(-c2c(C)nc3sc(C(O)(C4CC4)C4CC4)nn23)cc1S(=O)(=O)C(C)(C)C(=O)NCC(C)(C)O` [Example 8-3], with more than 80%; and `CNC(=O)C(C)(C)S(=O)(=O)c1cc(-c2c(C)nc3sc(C(O)(C4CC4)C4CC4)nn23)ccc1OC` [Example 8-4], with more than 80%; and `Cc1nc2sc(C(C)(C)O)nn2c1-c1ccc(C(F)(F)F)c(S(=O)(=O)C2CN(S(C)(=O)=O)C2)c1` [Example 9-1], with more than 80%.
Then `COc1ccc(-c2c(C)nc3sc(C(C)(C)O)nn23)cc1S(=O)(=O)C1CN(S(C)(=O)=O)C1` [Example 9-2], with 50 to 80%; and `COc1ccc(-c2c(C)nc3sc(C(O)(C4CC4)C4CC4)nn23)cc1S(=O)(=O)C1CN(S(C)(=O)=O)C1` [Example 9-3], with more than 80%.
Take `CC(=O)N1CC(S(=O)(=O)c2cc(-c3c(C)nc4sc(C(C)(C)O)nn34)ccc2C(F)(F)F)C1` [Example 10-1]: the inhibition at 0.1 µM is more than 80%.
Then `COc1ccc(-c2c(C)nc3sc(C(C)(C)O)nn23)cc1S(=O)(=O)C1CN(C(C)=O)C1` [Example 10-2], with not above 50%; and `COc1ccc(-c2c(C)nc3sc(C(O)(C4CC4)C4CC4)nn23)cc1S(=O)(=O)C1CN(C(C)=O)C1` [Example 10-3], with more than 80%.
As for `Cc1nc2sc(C(C)(C)O)nn2c1-c1ccc(C(F)(F)F)c(S(=O)(=O)C2CN(C(N)=O)C2)c1` [Example 11], the figure is not above 50%; as for `Cc1nc2sc(C(C)(C)O)nn2c1-c1ccc(C(F)(F)F)c(S(=O)(=O)C2CN(C)C2)c1` [Example 12-1], 50 to 80%.
As for `Cc1nc2sc(C(C)(C)O)nn2c1-c1ccc(C(F)(F)F)c(S(=O)(=O)C2CN(CCO)C2)c1` [Example 12-2], the figure is 50 to 80%; as for `COc1ccc(-c2c(C)nc3sc(C(C)(C)O)nn23)cc1S(=O)(=O)C1CCC(=O)CC1` [Example 13], not above 50%.
For the compound `COc1ccc(-c2c(C)nc3sc(C(C)(C)O)nn23)cc1S(=O)(=O)C1CCC(O)CC1` (stereo not drawn) [Example 14], the inhibition at 0.1 µM was not above 50%.
As for `COc1ccc(-c2c(C)nc3sc(C(C)(C)O)nn23)cc1S(=O)(=O)[C@H]1CC[C@@](C)(O)CC1` [Example 15-1], the figure is not above 50%; as for `COc1ccc(-c2c(C)nc3sc(C(C)(C)O)nn23)cc1S(=O)(=O)[C@H]1CC[C@](C)(O)CC1` [Example 15-2], 50 to 80%; as for `Cc1nc2sc(C(C)(C)O)nn2c1-c1ccc(O)c(S(=O)(=O)CC(C)(C)O)c1` [Example 16], not above 50%.
As for `Cc1nc2sc(C(C)(C)O)nn2c1-c1ccc(CO)c(S(=O)(=O)CC(C)(C)O)c1` [Example 17], the figure is not above 50%; as for `COc1ccc(-c2c(C)nc3sc(C(C)(C)C(=O)O)nn23)cc1S(=O)(=O)N[C@H]1CC[C@@H](O)CC1` [Example 18-1], 50 to 80%.
Then `COc1ncc(-c2c(C)nc3sc(C(C)(C)C(=O)O)nn23)cc1S(=O)(=O)N[C@H]1CC[C@@H](O)CC1` [Example 18-2], with not above 50%.
Take `COc1ccc(-c2c(C)nc3sc(C(C)(C)C(=O)N(C)C)nn23)cc1S(=O)(=O)N[C@H]1CC[C@@H](O)CC1` [Example 19]: the inhibition at 0.1 µM is more than 80%.
Take `COc1ccc(-c2c(C)nc3sc(C(C)(C)CO)nn23)cc1S(=O)(=O)N[C@H]1CC[C@@H](O)CC1` [Example 20-1]: the inhibition at 0.1 µM was more than 80%.
For `COc1ncc(-c2c(C)nc3sc(C(C)(C)CO)nn23)cc1S(=O)(=O)N[C@H]1CC[C@@H](O)CC1` [Example 20-2], the inhibition at 0.1 µM was not above 50%.
As for `COc1ccc(-c2c(C)nc3sc(C(C)(C)O)cn23)cc1S(=O)(=O)N[C@H]1CC[C@@H](O)CC1` [Example 21-1], the figure is not above 50%.
Then `COc1ccc(-c2c(C)nc3sc(C(C)(C)O)nn23)cc1S(=O)(=O)NC[C@H]1C[C@@H](O)C1` [Example 21-3], with 50 to 80%; and `COc1ccc(-c2c(C)nc3sc(C(C)(C)O)nn23)cc1S(=O)(=O)NCC1COC1` [Example 21-4], with 50 to 80%.
As for `COc1ccc(-c2c(C)nc3sc(C(C)(C)O)nn23)cc1S(=O)(=O)N[C@H]1C[C@H](CO)C1` [Example 21-5], the figure is not above 50%; as for `COc1ccc(-c2c(C)nc3sc(C(C)(C)O)nn23)cc1S(=O)(=O)NC[C@H]1C[C@H](O)C1` [Example 21-6], not above 50%.
With `COc1ccc(-c2c(C)nc3sc(C(C)(C)O)nn23)cc1S(=O)(=O)NCC(C)(C)O` [Example 21-7], the inhibition at 0.1 µM fell in the range of 50 to 80%.
`COc1ccc(-c2c(C)nc3sc(C(C)(C)O)nn23)cc1S(=O)(=O)N[C@H]1C[C@H](O)C1` [Example 21-8]: the inhibition at 0.1 µM lay in the range of 50 to 80%.
For the compound `COc1ccc(-c2c(C)nc3sc(C(C)(C)O)nn23)cc1S(=O)(=O)N[C@H]1C[C@@H](CO)C1` [Example 21-9], the inhibition at 0.1 µM was not above 50%.
Consider `COc1ccc(-c2c(C)nc3sc(C(C)(C)O)nn23)cc1S(=O)(=O)N[C@H]1C[C@@H](O)C1` [Example 21-10], for which the inhibition at 0.1 µM is not above 50%.
As for `COc1ccc(-c2c(C)nc3sc(C(C)(C)O)nn23)cc1S(=O)(=O)NC12CCC(O)(CC1)CC2` [Example 21-11], the figure is not above 50%; as for `COc1ccc(-c2c(C)nc3sc(C(C)(C)O)nn23)cc1S(=O)(=O)N[C@H]1CC[C@](C)(O)CC1` [Example 21-12], 50 to 80%.
As for `COc1ccc(-c2c(C)nc3sc(C(C)(C)O)nn23)cc1S(=O)(=O)N[C@H]1CC[C@@](C)(O)CC1` [Example 21-13], the inhibition at 0.1 µM is not above 50%.
